According to patent US20110105523A1, “BIFEPRUNOX DERIVATIVES” (priority 2008, published 2011):

What was measured:
[1] = target: T1, human dopamine D2L receptor (Homo sapiens, UniProt P14416); assay: Receptor binding, displacement of [3H]-spiperone on CHO cell membranes; settings: [3H]-spiperone displacement, recombinant human D2L in CHO membranes; s.e.m. in brackets; read-out: pKi value mean ± s.e.m. (converted)
T1 construct: host or cells: CHO-K1
Description: The potency of 3′-hydroxy-bifeprunox, 4′-hydroxy-bifeprunox, 3′-sulfate-bifeprunox, 4′-sulfate-bifeprunox and, for comparison, bifeprunox as a ligand on the human dopamine D2L receptor was investigated using a receptor binding assay and determination of functional activity was investigated using a cAMP assay. All compounds were dissolved in DMSO.
The binding of the compounds of the invention to the human D2L receptor was performed using displacement of radioactive-labeled [^3H]-spiperone binding on membranes prepared from Chinese hamster ovary (CHO) cells expressing the recombinant human D2L receptor.
Human dopamine D2L receptors were cloned in CHO-K1 cells and obtained from Dr. D. Grandy, Vollum Institute, Portland, Oreg., USA.
The binding assay has been carried out using [^3H]-spiperone as ligand (see Eur. J. Pharmacol. 46:377-381, 1977). The labeled compound was incubated with or without the test compound, with a preparation from cloned CHO cells carrying the human dopamine D2L receptor. Separation of bound and free ligand was performed by filtration over glassfiber-filters. After two washings, the bound-fraction remained on the filter. Radioactivity trapped on the filter was measured by scintillation counting. Results are expressed as pKi (negative logarithm of the inhibition constant Ki which is calculated form the IC50).

[2] = target: T1, human dopamine D2L receptor; assay: Adenylate cyclase activity (cAMP assay), inhibition of forskolin-stimulated cAMP accumulation in CHO cells; type: cell-based; settings: for Conversion of cAMP, % of control (mean (±s.e.m.)): control = forskolin-stimulated cAMP accumulation; for EC50: inhibition of forskolin-induced cAMP accumulation, D2L agonism, read-out: pEC50 mean (±s.e.m.) (converted)
Description: All compounds were dissolved in DMSO.
For incubation with test compounds (concentrations 10^−6-10^−10M), confluent cultures grown in 24 wells plates were used. Each condition or substance was routinely tested in quadruplicate. Cells were loaded with 1 μCi [^3H]-adenine in 0.5 ml medium/well. After 2 hours, cultures were washed with 0.5 ml PBS containing […] IBMX and forskolin with or without test compound. After aspiration the reaction was stopped with 1 ml trichloroacetic acid 5% (w/v). […] The extract was passed over Dowex (50W-4 200-400 mesh) and aluminiumoxide columns, eluted with water and 0.1M imidazole (pH=7.5). Eluates were mixed with 7 ml of Insta-gel and radioactivity was counted with a scintillation counter. The conversion of the cAMP fraction as compared to combined radioactivity in both cAMP and ATP fractions, and basal activity was subtracted to correct for spontaneous activity.
Dopamine D2L: reference compound: quinpirole; incubation time: 20 min.
Subsequently, the mean of four observations was taken as an estimate for drug-induced, receptor-mediated effects at specified messenger accumulation, expressed as percentage of control values (forskolin-stimulated cAMP accumulation).
By using the non-linear curve-fitting program XL-FIT mean values were plotted against drug concentration (in molar) and sigmoid curve (four parameter logistic curve) was constructed. The maximal forskolin-induced stimulated conversion was taken as maximum value and the maximal inhibition as minimum and these values were fixed during the fitting process.

T1 sequence (P14416 whole entry): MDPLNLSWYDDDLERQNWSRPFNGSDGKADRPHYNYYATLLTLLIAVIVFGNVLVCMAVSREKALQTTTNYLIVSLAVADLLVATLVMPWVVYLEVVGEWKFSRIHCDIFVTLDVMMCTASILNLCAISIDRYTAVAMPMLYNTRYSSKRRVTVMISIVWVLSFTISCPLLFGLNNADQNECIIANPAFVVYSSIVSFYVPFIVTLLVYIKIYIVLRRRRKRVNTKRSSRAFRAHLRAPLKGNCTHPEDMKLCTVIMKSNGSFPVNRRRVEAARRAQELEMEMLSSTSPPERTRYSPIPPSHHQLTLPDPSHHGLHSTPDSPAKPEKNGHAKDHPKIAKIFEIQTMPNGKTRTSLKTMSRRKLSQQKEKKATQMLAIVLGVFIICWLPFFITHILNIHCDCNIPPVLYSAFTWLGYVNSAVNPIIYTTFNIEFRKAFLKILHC

Ki [1] | PS: mean % stimulation (agonism) at 1 μM [2] | Conversion of cAMP, % of control (mean (±s.e.m.)) ([2]; 10^−6M test compound) | Conversion of cAMP, % of control (mean (±s.e.m.)) ([2]; 10^−7M test compound) | Conversion of cAMP, % of control (mean (±s.e.m.)) ([2]; 10^−8M test compound) | Conversion of cAMP, % of control (mean (±s.e.m.)) ([2]; 10^−9M test compound) | Conversion of cAMP, % of control (mean (±s.e.m.)) ([2]; 10^−10M test compound) | EC50 [2] | Compound
6.31 nM | 49% | 51 (16) % of control | 63 (14) % of control | 65 (13) % of control | 72 (13) % of control | 85 (9) % of control | 0.631 nM | O=c1[nH]c2cccc(N3CCN(Cc4cccc(-c5ccc(OS(=O)(=O)O)cc5)c4)CC3)c2o1 [4′-sulfate, 7-[4-(4′-sulfooxy[1,1′-biphenyl]-3-ylmethyl)-1-piperazinyl]-2(3H)-benzoxazolone]
39.8 nM | 31% | 69 (10) % of control | 69 (11) % of control | 84 (12) % of control | 94 (13) % of control | 95 (15) % of control | 6.31 nM | O=c1[nH]c2cccc(N3CCN(Cc4cccc(-c5ccccc5)c4)CC3)c2o1 [Bifeprunox, 7-[4-([1,1′-biphenyl]-3-ylmethyl1)-1-piperazinyl]-2(3H)-benzoxazolone monomethanesulphonate]

More lines, now with the values behind:

Compound | Ki [1] | PS: mean % stimulation (agonism) at 1 μM [2] | Conversion of cAMP, % of control (mean (±s.e.m.)) ([2]; 10^−6M test compound) | Conversion of cAMP, % of control (mean (±s.e.m.)) ([2]; 10^−7M test compound) | Conversion of cAMP, % of control (mean (±s.e.m.)) ([2]; 10^−8M test compound) | Conversion of cAMP, % of control (mean (±s.e.m.)) ([2]; 10^−9M test compound) | Conversion of cAMP, % of control (mean (±s.e.m.)) ([2]; 10^−10M test compound) | EC50 [2]
O=c1[nH]c2cccc(N3CCN(Cc4cccc(-c5cccc(OS(=O)(=O)O)c5)c4)CC3)c2o1 [3′-sulfate, 7-[4-(3′-sulfooxy[1,1′-biphenyl]-3-ylmethyl)-1-piperazinyl]-2(3H)-benzoxazolone] | 12.6 nM | 51% | 49 (6) % of control | 66 (12) % of control | 79 (6) % of control | 93 (9) % of control | 94 (5) % of control | 12.6 nM
O=c1[nH]c2cccc(N3CCN(Cc4cccc(-c5cccc(O)c5)c4)CC3)c2o1 [3′-OH, 7-[4-(3′-hydroxy[1,1′-biphenyl]-3-ylmethyl)-1-piperazinyl]-2(3H)-benzoxazolone] | 12.6 nM | 49% | 51 (10) % of control | 56 (8) % of control | 63 (7) % of control | 70 (6) % of control | 84 (4) % of control | 0.794 nM
O=c1[nH]c2cccc(N3CCN(Cc4cccc(-c5ccc(O)cc5)c4)CC3)c2o1 [4′-OH, 7-[4-(4′-hydroxy[1,1′-biphenyl]-3-ylmethyl)-1-piperazinyl]-2(3H)-benzoxazolone] | 12.6 nM | 55% | 45 (4) % of control | 50 (2) % of control | 58 (4) % of control | 59 (3) % of control | 90 (9) % of control | 0.2 nM
